Measured values published in the supplement of paper PMC10307832.

Assays:
Experiment in all cases: relative viability (nuclei count vs DMSO), 5 days (fraction); higher = more cells survive
201T = tested on: 201T
Summary of the method: (§1)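 A single step with final 0.05% Triton X-100, 1% formaldehyde and 1 ug/ml Hoechst fixed the cells and stained nuclei 5 days after treatment. Lung cancer cell lines in 1536-well plates had been treated by pin tool the day after seeding with one drug alone or a fixed anchor-drug dose plus five library-drug doses (not always all listed) in √10 steps, and nuclei were counted on 4× images. Relative viability is the ratio of nuclei in treated wells to nuclei in vehicle wells, taken as the median of duplicate plates.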

BEN = tested on: BEN
Summary of the method: as §1

EMC-BAC-2 = tested on: EMC-BAC-2
Summary of the method: as §1

HARA = tested on: HARA
Summary of the method: as §1

HCC-44 = tested on: HCC-44
Summary of the method: as §1

LCLC-103H = tested on: LCLC-103H
Summary of the method: as §1

LOU-NH91 = tested on: LOU-NH91
Summary of the method: as §1

NCI-H1395 = tested on: NCI-H1395
Summary of the method: as §1

NCI-H1666 = tested on: NCI-H1666
Summary of the method: as §1

NCI-H1993 = tested on: NCI-H1993
Summary of the method: as §1

NCI-H2009 = tested on: NCI-H2009
Summary of the method: as §1

NCI-H2023 = tested on: NCI-H2023
Summary of the method: as §1

NCI-H2087 = tested on: NCI-H2087
Summary of the method: as §1

NCI-H2126 = tested on: NCI-H2126
Summary of the method: as §1

NCI-H2347 = tested on: NCI-H2347
Summary of the method: as §1

NCI-H23 = tested on: NCI-H23
Summary of the method: as §1

NCI-H3122 = tested on: NCI-H3122
Summary of the method: as §1

NCI-H441 = tested on: NCI-H441
Summary of the method: as §1

NCI-H596 = tested on: NCI-H596
Summary of the method: as §1

NCI-H647 = tested on: NCI-H647
Summary of the method: as §1

NCI-H650 = tested on: NCI-H650
Summary of the method: as §1

NCI-H727 = tested on: NCI-H727
Summary of the method: as §1

NCI-H838 = tested on: NCI-H838
Summary of the method: as §1

C=C1C(=O)O[C@@H](CCCCCCCC)[C@@H]1C(=O)O [C-75] + COc1cccc2cc(-c3nc([C@H]4CC[C@H](C(=O)O)CC4)n4ncnc(N)c34)[nH]c12 [OSI-027] (partner 0.5 µM)
relative viability (201T; first compound 0.08 µM): 0.734
relative viability (201T; first compound 0.253 µM): 0.866
relative viability (201T; first compound 0.8 µM): 0.698
relative viability (201T; first compound 8 µM): 0.734
relative viability (BEN; first compound 0.08 µM): 0.347
relative viability (BEN; first compound 0.253 µM): 0.293
relative viability (BEN; first compound 0.8 µM): 0.32
relative viability (BEN; first compound 8 µM): 0.288
relative viability (EMC-BAC-2; first compound 0.08 µM): 0.416
relative viability (EMC-BAC-2; first compound 0.253 µM): 0.385
relative viability (EMC-BAC-2; first compound 0.8 µM): 0.384
relative viability (EMC-BAC-2; first compound 2.53 µM): 0.269
relative viability (EMC-BAC-2; first compound 8 µM): 0.341
relative viability (HARA; first compound 0.08 µM): 0.634
relative viability (HARA; first compound 0.253 µM): 0.587
relative viability (HARA; first compound 0.8 µM): 0.513
relative viability (HARA; first compound 2.53 µM): 0.31
relative viability (HARA; first compound 8 µM): 0.441
relative viability (HCC-44; first compound 0.08 µM): 0.675
relative viability (HCC-44; first compound 0.253 µM): 0.428
relative viability (HCC-44; first compound 0.8 µM): 0.463
relative viability (HCC-44; first compound 2.53 µM): 0.353
relative viability (HCC-44; first compound 8 µM): 0.404
relative viability (LCLC-103H; first compound 0.08 µM): 0.471
relative viability (LCLC-103H; first compound 0.253 µM): 0.495
relative viability (LCLC-103H; first compound 0.8 µM): 0.432
relative viability (LCLC-103H; first compound 2.53 µM): 0.337
relative viability (LCLC-103H; first compound 8 µM): 0.472
relative viability (LOU-NH91; first compound 0.08 µM): 0.725
relative viability (LOU-NH91; first compound 0.253 µM): 0.622
relative viability (LOU-NH91; first compound 0.8 µM): 0.68
relative viability (LOU-NH91; first compound 2.53 µM): 0.656
relative viability (LOU-NH91; first compound 8 µM): 0.781
relative viability (NCI-H1395; first compound 0.08 µM): 0.669
relative viability (NCI-H1395; first compound 0.253 µM): 0.624
relative viability (NCI-H1395; first compound 0.8 µM): 0.556
relative viability (NCI-H1395; first compound 2.53 µM): 0.667
relative viability (NCI-H1395; first compound 8 µM): 0.649
relative viability (NCI-H1666; first compound 0.08 µM): 0.798
relative viability (NCI-H1666; first compound 0.253 µM): 0.97
relative viability (NCI-H1666; first compound 0.8 µM): 0.885
relative viability (NCI-H1666; first compound 2.53 µM): 0.726
relative viability (NCI-H1666; first compound 8 µM): 0.786
relative viability (NCI-H1993; first compound 0.08 µM): 0.558
relative viability (NCI-H1993; first compound 0.253 µM): 0.61
relative viability (NCI-H1993; first compound 0.8 µM): 0.491
relative viability (NCI-H1993; first compound 2.53 µM): 0.539
relative viability (NCI-H1993; first compound 8 µM): 0.589
relative viability (NCI-H2009; first compound 0.08 µM): 0.675
relative viability (NCI-H2009; first compound 0.253 µM): 0.686
relative viability (NCI-H2009; first compound 0.8 µM): 0.567
relative viability (NCI-H2009; first compound 2.53 µM): 0.545
relative viability (NCI-H2009; first compound 8 µM): 0.426
relative viability (NCI-H2023; first compound 0.08 µM): 0.455
relative viability (NCI-H2023; first compound 0.253 µM): 0.558
relative viability (NCI-H2023; first compound 0.8 µM): 0.34
relative viability (NCI-H2023; first compound 2.53 µM): 0.415
relative viability (NCI-H2023; first compound 8 µM): 0.32
relative viability (NCI-H2087; first compound 0.08 µM): 0.609
relative viability (NCI-H2087; first compound 0.253 µM): 0.807
relative viability (NCI-H2087; first compound 0.8 µM): 0.54
relative viability (NCI-H2087; first compound 2.53 µM): 0.377
relative viability (NCI-H2087; first compound 8 µM): 0.528
relative viability (NCI-H2126; first compound 0.08 µM): 0.762
relative viability (NCI-H2126; first compound 0.253 µM): 0.757
relative viability (NCI-H2126; first compound 0.8 µM): 0.707
relative viability (NCI-H2126; first compound 2.53 µM): 0.744
relative viability (NCI-H2126; first compound 8 µM): 0.66
relative viability (NCI-H2347; first compound 0.08 µM): 0.408
relative viability (NCI-H2347; first compound 0.253 µM): 0.523
relative viability (NCI-H2347; first compound 0.8 µM): 0.44
relative viability (NCI-H2347; first compound 8 µM): 0.478
relative viability (NCI-H23; first compound 0.08 µM): 0.742
relative viability (NCI-H23; first compound 0.253 µM): 0.698
relative viability (NCI-H23; first compound 0.8 µM): 0.575
relative viability (NCI-H23; first compound 2.53 µM): 0.375
relative viability (NCI-H23; first compound 8 µM): 0.448
relative viability (NCI-H3122; first compound 0.08 µM): 1.1
relative viability (NCI-H3122; first compound 0.253 µM): 1.27
relative viability (NCI-H3122; first compound 0.8 µM): 0.971
relative viability (NCI-H3122; first compound 8 µM): 0.854
relative viability (NCI-H441; first compound 0.08 µM): 0.512
relative viability (NCI-H441; first compound 0.253 µM): 0.713
relative viability (NCI-H441; first compound 0.8 µM): 0.678
relative viability (NCI-H441; first compound 2.53 µM): 0.36
relative viability (NCI-H441; first compound 8 µM): 0.548
relative viability (NCI-H596; first compound 0.08 µM): 0.887
relative viability (NCI-H596; first compound 0.253 µM): 0.798
relative viability (NCI-H596; first compound 0.8 µM): 0.72
relative viability (NCI-H596; first compound 2.53 µM): 0.622
relative viability (NCI-H596; first compound 8 µM): 0.678
relative viability (NCI-H647; first compound 0.08 µM): 0.697
relative viability (NCI-H647; first compound 0.253 µM): 0.603
relative viability (NCI-H647; first compound 0.8 µM): 0.522
relative viability (NCI-H647; first compound 2.53 µM): 0.474
relative viability (NCI-H647; first compound 8 µM): 0.574
relative viability (NCI-H650; first compound 0.08 µM): 0.611
relative viability (NCI-H650; first compound 0.253 µM): 0.401
relative viability (NCI-H650; first compound 0.8 µM): 0.494
relative viability (NCI-H650; first compound 2.53 µM): 0.448
relative viability (NCI-H650; first compound 8 µM): 0.524
relative viability (NCI-H727; first compound 0.08 µM): 0.893
relative viability (NCI-H727; first compound 0.253 µM): 0.894
relative viability (NCI-H727; first compound 0.8 µM): 0.575
relative viability (NCI-H727; first compound 8 µM): 0.98
relative viability (NCI-H838; first compound 0.08 µM): 0.442
relative viability (NCI-H838; first compound 0.8 µM): 0.37
relative viability (NCI-H838; first compound 2.53 µM): 0.36
relative viability (NCI-H838; first compound 8 µM): 0.404
